Test system: bacteria, virus and yeast
Experiment: germicidal efficacy of surfactant-detergent compounds
Conditions: surfactants tested separately and in combination
Text: Disinfecting surfactant-detergent compounds are also used in the liquid composition. Surfactants are effective germicides and attack the membranes of the organisms. Also, the surfactants are surface active reducing surface tension. […] It is thought that the surfactant has two characteristics which contribute to this invention. Those being germicidal activity including effectiveness over a wide range of organisms including bacteria, virus and yeast and providing a reduction of the surface tension of the composition to achieve effective spread and distribution if the germicide on the surface to be disinfected. Two different types of surfactants were tested separately and in combination for efficacy. […] There are other compounds which have the properties of germicide-surfactants, and this invention is not limited to those compounds shown in the examples.

Compound	efficacy as germicide-surfactant
octyl phenoxy polyethoxyethanol	effective germicide-surfactants
CCCCCCCCCCCCOS(=O)(=O)[O-].[Na+] [sodium dodecyl sulfate]	effective germicide-surfactants
